Reference: US20110230472A1, “RING-FUSED AZOLE DERIVATIVE HAVING PI3K-INHIBITING ACTIVITY” (Shionogi & Co., Ltd., priority 2008, published 2011)
pIC50: −log10 of the molar value. One block for each compound: values may come before it.

How the values were obtained:
[1] = target: T1, CYP2C19 (Homo sapiens, UniProt P33261); assay: CYP inhibition test, pooled human liver microsome, CYP2C19; format: in vitro ADME; details: 4′-hydroxylation of mephenyloin
T1 construct: enzyme: pooled human liver microsome 0.2 mg protein/mL; from tissue; host or cells: pooled human liver microsome
T1 sequence (P33261 whole entry): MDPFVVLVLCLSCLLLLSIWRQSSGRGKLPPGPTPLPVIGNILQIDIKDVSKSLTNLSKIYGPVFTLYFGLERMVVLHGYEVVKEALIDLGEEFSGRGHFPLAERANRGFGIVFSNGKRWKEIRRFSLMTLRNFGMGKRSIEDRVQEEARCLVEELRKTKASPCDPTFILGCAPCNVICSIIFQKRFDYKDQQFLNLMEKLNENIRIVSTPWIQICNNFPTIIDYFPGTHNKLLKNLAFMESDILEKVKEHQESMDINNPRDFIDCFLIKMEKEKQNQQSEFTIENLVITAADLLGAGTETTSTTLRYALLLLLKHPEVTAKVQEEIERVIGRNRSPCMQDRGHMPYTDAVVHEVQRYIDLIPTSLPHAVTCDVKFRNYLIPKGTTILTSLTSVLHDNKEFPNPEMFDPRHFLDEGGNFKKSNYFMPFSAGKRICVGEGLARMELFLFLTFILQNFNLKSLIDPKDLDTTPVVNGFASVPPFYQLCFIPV
Text: (§1) O-de-ethylation of 7-ethoxyresorufin (CYP1A2), methyl-hydroxylation of tolbutamide (CYP2C9), 4′-hydroxylation of mephenyloin (CYP2C19), O-demethylation of dextromethorphan (CYP2D6), and hydroxylation of terfenadine (CYP3A4), which are typical substrate for metabolic reactions of human main CYP5 molecular species (CYP1A2, 2C9, 2C19, 2D6, and 3A4), were adopted as indexes.
(§2) The reaction conditions are as follows: substrate: 0.5 μmol/L of ethoxyresorufin (CYP1A2), 100 μmol/L of tolbutamide (CYP2C9), […] of S-mephenyloin (CYP2C19), 5 μmol/L of dextromethorphan (CYP2D6), and 1 μmol/L of terfenadine (CYP3A4); reaction time; 15 minutes; reaction temperature: 37° C.; enzyme: pooled human liver microsome 0.2 mg protein/mL; test drug concentration: 1, 5, 10, and 20 μmol/L (4 points).
(§3) In a 96-well plate, as a reaction solution, five kinds of substrates, a human liver microsome, and a test drug were added to 50 mmol/L Hepes buffer solution in the aforementioned ratio. A coenzyme NADPH was added to start a metabolic reaction, which is an index. After reacting at 37° C. for 15 minutes, a solution of methanol/acetonitrile (1/1 (v/v)) was added to quench the reaction. After centrifugation at 3000 rpm for 15 minutes, resorufin (CYP1A2 metabolite) in the supernatant was quantitated with a fluorescence multilabel counter, and hydroxylated tolbutamide (CYP2C9 metabolite), 4′-hydroxylated mephenyloin (CYP2C19 metabolite), […], terfenadine in alcohol form (CYP3A4 metabolite) were quantitated with LC/MS/MS.
(§4) The case wherein only DMSO (a solvent which dissolved a drug) was added to a reaction system was defined as a control (100%). When a test drug solution was added, the remaining activity (%) at each concentration was calculated, and then IC50 was calculated with a concentration and an inhibition ratio by an inverse estimation using a logistic model.

[2] = target: T2, CYP1A2 (Homo sapiens, UniProt P05177); assay: CYP inhibition test, pooled human liver microsome, CYP1A2; format: in vitro ADME; details: O-de-ethylation of 7-ethoxyresorufin
T2 construct: enzyme: pooled human liver microsome 0.2 mg protein/mL; from tissue; host or cells: pooled human liver microsome
T2 sequence (P05177 1-516): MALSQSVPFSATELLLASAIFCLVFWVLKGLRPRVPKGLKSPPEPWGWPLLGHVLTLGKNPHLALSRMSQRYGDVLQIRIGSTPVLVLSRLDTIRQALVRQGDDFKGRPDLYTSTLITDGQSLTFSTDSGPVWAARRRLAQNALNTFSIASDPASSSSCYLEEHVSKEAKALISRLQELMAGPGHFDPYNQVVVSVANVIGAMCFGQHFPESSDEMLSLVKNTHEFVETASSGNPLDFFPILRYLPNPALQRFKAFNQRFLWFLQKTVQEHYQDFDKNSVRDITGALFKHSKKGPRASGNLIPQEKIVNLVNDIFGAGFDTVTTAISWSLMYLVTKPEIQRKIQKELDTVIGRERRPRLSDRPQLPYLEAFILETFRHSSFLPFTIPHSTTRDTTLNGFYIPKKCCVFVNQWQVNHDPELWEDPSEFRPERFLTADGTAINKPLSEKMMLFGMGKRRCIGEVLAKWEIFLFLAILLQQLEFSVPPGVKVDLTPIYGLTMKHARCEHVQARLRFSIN
Text: as §1, §2, §3, §4

[3] = target: T3, CYP2D6 (Homo sapiens, UniProt P10635); assay: CYP inhibition test, pooled human liver microsome, CYP2D6; format: in vitro ADME; details: O-demethylation of dextromethorphan
T3 construct: enzyme: pooled human liver microsome 0.2 mg protein/mL; from tissue; host or cells: pooled human liver microsome
T3 sequence (P10635 whole entry): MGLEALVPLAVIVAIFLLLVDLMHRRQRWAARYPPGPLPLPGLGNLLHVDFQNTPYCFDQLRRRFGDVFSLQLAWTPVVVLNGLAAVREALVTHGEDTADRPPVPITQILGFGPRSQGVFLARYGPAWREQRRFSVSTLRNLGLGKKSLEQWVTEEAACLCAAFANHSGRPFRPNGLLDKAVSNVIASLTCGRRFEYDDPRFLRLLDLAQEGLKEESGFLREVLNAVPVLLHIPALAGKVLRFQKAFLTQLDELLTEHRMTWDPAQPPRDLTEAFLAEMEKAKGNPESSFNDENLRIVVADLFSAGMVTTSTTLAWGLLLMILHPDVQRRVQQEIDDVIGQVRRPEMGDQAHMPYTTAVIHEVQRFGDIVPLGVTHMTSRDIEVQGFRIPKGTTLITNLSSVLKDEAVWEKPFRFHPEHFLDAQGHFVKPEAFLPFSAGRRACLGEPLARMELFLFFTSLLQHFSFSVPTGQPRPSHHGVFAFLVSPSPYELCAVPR
Text: as §1, §2, §3, §4

[4] = Solubility test; format: physicochemical; details: kinetic from dmso stock; artificial intestinal juice pH 6.8, 1% DMSO, 25° C. for 16 hours
Method: The solubility of a compound was determined under a condition in which 1% DMSO was added. 10 mmol/L compound solution was prepared using DMSO, and then 6 μL of the compound solution was added to 594 μL of artificial intestinal juice in pH 6.8 (to 250 mL of 0.2 mol/L potassium dihydrogen phosphate reagent solution was added 118 mL of 0.2 mol/L NaOH reagent solution and water to provide a final volume of 1000 mL). After standing at 25° C. for 16 hours, the mixed solution was filtered with suction. The filtrate was diluted twice with methanol/water (1/1), and then a concentration in the filtration was measured with HPLC or LC/MS/MS by the absolute calibration method.

[5] = Metabolic stability test; format: in vitro ADME; details: human liver microsome 0.5 mg protein/mL, 1 mmol/L NADPH, 37° C.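 Also: 100% equals the compound amount at 0 min reaction.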
Method: After a subject compound was reacted for a certain time using a pooled human liver microsome commercially available, a reacted sample and an unreacted sample are compared to calculate a survival ratio, and then the degree of metabolism in the liver was evaluated.
0.2 mL of a buffer solution (50 mmol/L of Tris-HCl in pH 7.4, 150 mmol/L of potassium chloride, and 10 mmol/L of magnesium chloride) containing a human liver microsome of 0.5 mg protein/mL was reacted in the presence of 1 mmol/L NADPH at 37° C. for 0 or 30 minutes (oxidative reaction). After reacting, 50 μL of the reaction solution was added to 100 μL of a solution of methanol/acetonitrile (1/1 (v/v)), mixed, and then centrifuged at 3000 rpm for 15 minutes. The test compound in the supernatant was quantitated with LC/MS/MS. The amount of the compound at a reaction time of 0 minute was defined as 100% and, based on that, the percentage of the test compound remained after reacting for 30 minutes was calculated.

[6] = target: T4, CYP2C9 (Homo sapiens, UniProt P11712); assay: CYP inhibition test, pooled human liver microsome, CYP2C9; format: in vitro ADME; details: methyl-hydroxylation of tolbutamide
T4 construct: enzyme: pooled human liver microsome 0.2 mg protein/mL; from tissue; host or cells: pooled human liver microsome
T4 sequence (P11712 whole entry): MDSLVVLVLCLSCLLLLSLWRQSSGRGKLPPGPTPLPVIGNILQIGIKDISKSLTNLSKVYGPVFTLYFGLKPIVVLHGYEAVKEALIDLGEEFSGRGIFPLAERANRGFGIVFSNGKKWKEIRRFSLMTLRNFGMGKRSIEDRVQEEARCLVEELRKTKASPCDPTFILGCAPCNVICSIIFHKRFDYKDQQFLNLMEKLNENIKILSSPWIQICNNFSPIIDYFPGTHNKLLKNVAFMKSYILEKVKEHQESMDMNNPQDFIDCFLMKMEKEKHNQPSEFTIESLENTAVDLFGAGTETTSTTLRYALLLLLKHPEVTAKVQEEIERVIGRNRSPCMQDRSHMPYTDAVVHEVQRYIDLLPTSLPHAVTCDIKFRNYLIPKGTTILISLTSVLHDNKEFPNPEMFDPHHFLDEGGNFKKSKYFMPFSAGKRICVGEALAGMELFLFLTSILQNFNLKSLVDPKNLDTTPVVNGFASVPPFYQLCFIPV
Text: as §1, §2, §3, §4

[7] = target: PI-3 kinase γ (Homo sapiens, UniProt P48736); assay: PI3Kγ inhibitory activity, PI3-kinase HTRF assay (inhibition ratio); format: biochemical; details: 0.5 h; for inhibition at 50 µM: compound at 50 μM
Sequence of PI-3 kinase γ (P48736 whole entry): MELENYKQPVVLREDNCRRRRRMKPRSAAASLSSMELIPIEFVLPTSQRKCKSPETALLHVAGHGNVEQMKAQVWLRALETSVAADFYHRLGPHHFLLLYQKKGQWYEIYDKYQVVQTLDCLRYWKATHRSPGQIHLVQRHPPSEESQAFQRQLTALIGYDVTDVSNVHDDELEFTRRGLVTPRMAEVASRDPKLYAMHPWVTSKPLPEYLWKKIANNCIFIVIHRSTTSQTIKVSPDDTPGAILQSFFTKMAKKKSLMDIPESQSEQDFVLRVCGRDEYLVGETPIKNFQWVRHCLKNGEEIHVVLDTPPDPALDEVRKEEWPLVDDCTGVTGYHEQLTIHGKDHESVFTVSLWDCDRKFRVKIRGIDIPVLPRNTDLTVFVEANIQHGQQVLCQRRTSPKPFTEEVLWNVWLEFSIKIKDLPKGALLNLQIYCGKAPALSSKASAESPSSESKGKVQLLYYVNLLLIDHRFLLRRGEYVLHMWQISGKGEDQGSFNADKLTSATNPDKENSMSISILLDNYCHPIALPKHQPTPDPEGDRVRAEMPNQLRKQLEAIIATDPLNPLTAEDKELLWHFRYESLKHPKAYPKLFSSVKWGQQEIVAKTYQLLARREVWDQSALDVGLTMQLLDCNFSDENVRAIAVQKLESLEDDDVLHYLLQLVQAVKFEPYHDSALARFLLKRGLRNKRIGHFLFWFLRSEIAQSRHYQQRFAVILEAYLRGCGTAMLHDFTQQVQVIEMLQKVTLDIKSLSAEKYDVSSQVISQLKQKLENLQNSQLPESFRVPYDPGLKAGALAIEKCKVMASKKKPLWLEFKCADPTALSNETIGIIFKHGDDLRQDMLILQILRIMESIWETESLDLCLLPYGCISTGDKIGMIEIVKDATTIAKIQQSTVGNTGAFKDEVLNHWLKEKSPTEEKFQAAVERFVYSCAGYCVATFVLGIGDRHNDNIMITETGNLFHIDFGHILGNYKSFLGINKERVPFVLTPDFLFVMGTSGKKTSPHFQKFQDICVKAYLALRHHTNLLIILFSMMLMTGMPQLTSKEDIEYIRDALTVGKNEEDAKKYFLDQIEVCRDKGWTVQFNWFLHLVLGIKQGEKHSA
In short: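 Single-concentration inhibition ratio (50 or 10 μmol/L compound) versus no-compound (100%) and no-enzyme (0%) wells. Reaction: PI-3 kinase γ, PIP2, ATP, MgCl2/DTT, 30 min at RT after 10 min preincubation. Read-out: HTRF 665/620 nm after 18 h detection.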

[8] = target: T5, CYP3A4 (Homo sapiens, UniProt P08684); assay: CYP inhibition test, pooled human liver microsome, CYP3A4; format: in vitro ADME; details: hydroxylation of terfenadine
T5 construct: enzyme: pooled human liver microsome 0.2 mg protein/mL; from tissue; host or cells: pooled human liver microsome
T5 sequence (P08684 whole entry): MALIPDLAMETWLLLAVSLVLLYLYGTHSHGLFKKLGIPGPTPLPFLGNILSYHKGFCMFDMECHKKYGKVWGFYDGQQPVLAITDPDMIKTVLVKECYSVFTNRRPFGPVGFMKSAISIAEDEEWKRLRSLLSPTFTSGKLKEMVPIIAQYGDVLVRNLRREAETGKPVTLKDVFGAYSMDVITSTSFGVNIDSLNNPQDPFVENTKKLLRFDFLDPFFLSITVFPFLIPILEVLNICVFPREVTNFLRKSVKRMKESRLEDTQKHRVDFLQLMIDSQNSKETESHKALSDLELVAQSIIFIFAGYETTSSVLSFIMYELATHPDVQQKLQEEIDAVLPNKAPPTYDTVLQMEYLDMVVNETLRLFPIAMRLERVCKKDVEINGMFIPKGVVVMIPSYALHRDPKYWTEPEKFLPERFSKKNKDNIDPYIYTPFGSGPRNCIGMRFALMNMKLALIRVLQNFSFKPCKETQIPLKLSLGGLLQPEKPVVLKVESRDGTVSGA
Text: as §1, §2, §3, §4

pIC50 [1]: < 4.70
pIC50 [2]: < 4.70
pIC50 [3]: < 4.70
solubility at 16 h [4]: > 50 µM
percentage of the test compound remained after reacting for 30 minutes [5]: 96.7%
pIC50 [6]: < 4.70
inhibition at 10 µM ([7]; compound at 10 μmol/L): ≥ 95%
pIC50 [8]: < 4.70
Compound: CN1CCc2cc(N3CCn4nc(NC(=O)c5cc(O)no5)cc43)ccc2C1=O [Compound I-397]

pIC50 [1]: < 4.70
pIC50 [2]: < 4.70
pIC50 [3]: < 4.70
percentage of the test compound remained after reacting for 30 minutes [5]: 92.9%
pIC50 [6]: < 4.70
inhibition at 10 µM ([7]; compound at 10 μmol/L): ≥ 95%
pIC50 [8]: < 4.70
Compound: CC(C)NC(=O)c1ccc(C(=O)Nc2cc3n(n2)CCN3c2ccc3c(c2)CCN(C)C3=O)s1 [Compound I-407]

pIC50 [1]: < 4.70
pIC50 [2]: < 4.70
pIC50 [3]: < 4.70
percentage of the test compound remained after reacting for 30 minutes [5]: 92.2%
pIC50 [6]: < 4.70
inhibition at 10 µM ([7]; compound at 10 μmol/L): ≥ 95%
pIC50 [8]: < 4.70
Compound: CN1CCc2cc(N3CCn4nc(NC(=O)c5ccc(C(=O)NCC#N)s5)cc43)ccc2C1=O [Compound I-409]

Further lines, the compound ahead of its results:

Compound: CNC(=O)Nc1cc2n(n1)CCN2c1cc(Br)cc(C(=O)Nc2cccc(C(=O)O)c2)c1 [Compound I-187]
pIC50 [1]: < 4.70
pIC50 [2]: < 4.70
pIC50 [3]: < 4.70
solubility at 16 h [4]: > 50 µM
percentage of the test compound remained after reacting for 30 minutes [5]: 98.9%
pIC50 [6]: < 4.70
inhibition at 50 µM ([7]; PI3Kγ): 94%
pIC50 [8]: < 4.70

Compound: CN(C)C(=O)CCC(=O)Nc1cc2n(n1)CCN2c1cccc(Cl)c1 [Compound I-234]
pIC50 [1]: < 4.70
pIC50 [2]: < 4.70
pIC50 [3]: < 4.70
percentage of the test compound remained after reacting for 30 minutes [5]: 98.3%
pIC50 [6]: < 4.70
inhibition at 50 µM ([7]; PI3Kγ): ≥ 95%
pIC50 [8]: < 4.70

Compound: COc1cc(N2CCc3nc(NC(=O)NCCC(=O)N4CCC[C@H]4C(=O)O)sc3C2)nc(OC)n1 [Compound I-276]
pIC50 [1]: < 4.70
pIC50 [2]: < 4.70
pIC50 [3]: < 4.70
solubility at 16 h [4]: > 50 µM
percentage of the test compound remained after reacting for 30 minutes [5]: 90.1%
pIC50 [6]: < 4.70
inhibition at 10 µM ([7]; PI3Kγ, compound at 10 μM): ≥ 95%
pIC50 [8]: < 4.70

Compound: COc1nc(OC)nc(N2CCc3nc(NC(C)=O)sc3C2)n1 [Compound I-330]
pIC50 [1]: < 4.70
pIC50 [2]: < 4.70
pIC50 [3]: < 4.70
solubility at 16 h [4]: > 50 µM
percentage of the test compound remained after reacting for 30 minutes [5]: 99%
pIC50 [6]: < 4.70
inhibition at 10 µM ([7]; compound at 10 μmol/L): 83%
pIC50 [8]: < 4.70

Compound: CC(=O)Nc1cc2n(n1)CCN2c1ccc2c(c1)CCC(=O)N2C [Compound I-340]
pIC50 [1]: < 4.70
pIC50 [2]: < 4.70
pIC50 [3]: < 4.70
solubility at 16 h [4]: > 50 µM
percentage of the test compound remained after reacting for 30 minutes [5]: 98.3%
pIC50 [6]: < 4.70
inhibition at 10 µM ([7]; compound at 10 μmol/L): ≥ 95%
pIC50 [8]: < 4.70
